# Source: the supplement of paper PMC10307832
# What was measured:
# Experiment in all cases: relative viability (nuclei count vs DMSO), 5 days (fraction); higher = more cells survive
# [1] = compound: CC1=CC(=CC=C1)NC2=NC(=CS2)C3=CC=NC=C3 + CS(=O)(=O)CCNCc1ccc(-c2ccc3ncnc(Nc4ccc(OCc5cccc(F)c5)c(Cl)c4)c3c2)o1 [Lapatinib] (partner 2 µM)
# Summary of the method: (§1)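 A single step with final 0.05% Triton X-100, 1% formaldehyde and 1 ug/ml Hoechst fixed the cells and stained nuclei 5 days after treatment. Lung cancer cell lines in 1536-well plates had been treated by pin tool the day after seeding with one drug alone or a fixed anchor-drug dose plus five library-drug doses (not always all listed) in √10 steps, and nuclei were counted on 4× images. Relative viability is the ratio of nuclei in treated wells to nuclei in vehicle wells, taken as the median of duplicate plates.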
# [2] = compound: CC1=CC(=CC=C1)NC2=NC(=CS2)C3=CC=NC=C3 + CS(=O)(=O)N1CCN(Cc2cc3nc(-c4cccc5[nH]ncc45)nc(N4CCOCC4)c3s2)CC1 [Pictilisib] (partner 1 µM)
# Summary of the method: as §1
# [3] = compound: CC1=CC(=CC=C1)NC2=NC(=CS2)C3=CC=NC=C3 + CC(=O)Nc1cccc(-n2c(=O)n(C3CC3)c(=O)c3c(Nc4ccc(I)cc4F)n(C)c(=O)c(C)c32)c1 [Trametinib] (partner 0.02 µM)
# Summary of the method: as §1
# Masitinib + Trametinib = compound: Cc1ccc(NC(=O)c2ccc(CN3CCN(C)CC3)cc2)cc1Nc1nc(-c2cccnc2)cs1 [Masitinib] + CC(=O)Nc1cccc(-n2c(=O)n(C3CC3)c(=O)c3c(Nc4ccc(I)cc4F)n(C)c(=O)c(C)c32)c1 [Trametinib] (partner 0.02 µM)
# Summary of the method: as §1
cell line,measurement,setting,value
UMC-11,relative viability,[1]; first compound 0.08 µM,0.839
same,relative viability,[1]; first compound 0.253 µM,0.85
same,relative viability,[1]; first compound 0.8 µM,0.885
same,relative viability,[1]; first compound 2.53 µM,0.934
same,relative viability,[1]; first compound 8 µM,1.02
same,relative viability,[2]; first compound 0.08 µM,0.757
same,relative viability,[2]; first compound 0.253 µM,0.746
same,relative viability,[2]; first compound 0.8 µM,0.729
same,relative viability,[2]; first compound 2.53 µM,0.761
same,relative viability,[2]; first compound 8 µM,0.824
same,relative viability,[3]; first compound 0.08 µM,0.555
same,relative viability,[3]; first compound 0.253 µM,0.737
same,relative viability,[3]; first compound 0.8 µM,0.731
same,relative viability,[3]; first compound 2.53 µM,0.768
same,relative viability,[3]; first compound 8 µM,0.764
same,relative viability,Masitinib + Trametinib; first compound 0.01 µM,0.431
same,relative viability,Masitinib + Trametinib; first compound 0.03162 µM,0.588
same,relative viability,Masitinib + Trametinib; first compound 0.1 µM,0.617
same,relative viability,Masitinib + Trametinib; first compound 0.3162 µM,0.627
same,relative viability,Masitinib + Trametinib; first compound 1 µM,0.804
